For assay [1], the target named is T1, Replicative DNA helicase DnaB (Mycobacterium tuberculosis, UniProt P9WMR3).
T1 sequence (P9WMR3 whole entry): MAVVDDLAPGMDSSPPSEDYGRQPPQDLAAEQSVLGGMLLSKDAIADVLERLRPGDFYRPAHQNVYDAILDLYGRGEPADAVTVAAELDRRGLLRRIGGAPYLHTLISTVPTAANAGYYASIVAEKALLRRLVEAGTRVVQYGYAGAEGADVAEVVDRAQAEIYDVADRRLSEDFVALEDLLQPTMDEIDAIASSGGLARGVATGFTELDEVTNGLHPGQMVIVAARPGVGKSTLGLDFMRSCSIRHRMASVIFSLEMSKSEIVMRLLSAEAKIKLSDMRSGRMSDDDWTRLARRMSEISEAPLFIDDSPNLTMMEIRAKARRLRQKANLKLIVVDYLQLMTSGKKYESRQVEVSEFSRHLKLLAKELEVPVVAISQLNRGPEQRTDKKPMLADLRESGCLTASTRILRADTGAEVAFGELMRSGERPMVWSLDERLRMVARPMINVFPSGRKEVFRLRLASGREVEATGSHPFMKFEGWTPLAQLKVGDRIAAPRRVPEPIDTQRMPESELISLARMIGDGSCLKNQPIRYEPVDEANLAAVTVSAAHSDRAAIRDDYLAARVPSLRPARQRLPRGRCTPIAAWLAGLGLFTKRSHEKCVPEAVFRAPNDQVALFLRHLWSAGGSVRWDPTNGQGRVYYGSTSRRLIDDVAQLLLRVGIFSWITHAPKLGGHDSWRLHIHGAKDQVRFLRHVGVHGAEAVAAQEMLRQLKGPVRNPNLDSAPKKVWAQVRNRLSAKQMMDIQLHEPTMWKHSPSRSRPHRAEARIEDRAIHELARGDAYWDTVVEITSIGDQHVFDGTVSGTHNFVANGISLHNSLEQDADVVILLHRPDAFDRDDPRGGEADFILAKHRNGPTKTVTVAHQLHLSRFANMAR
In words: DnaB intein splicing inhibitors, dose response, biochemical, cell-free fluorescence (AID 449749). The format is functional.

In assay [2] the target is T2, Protein RecA (Mycobacterium tuberculosis, UniProt P9WHJ3).
T2 sequence (P9WHJ3 whole entry): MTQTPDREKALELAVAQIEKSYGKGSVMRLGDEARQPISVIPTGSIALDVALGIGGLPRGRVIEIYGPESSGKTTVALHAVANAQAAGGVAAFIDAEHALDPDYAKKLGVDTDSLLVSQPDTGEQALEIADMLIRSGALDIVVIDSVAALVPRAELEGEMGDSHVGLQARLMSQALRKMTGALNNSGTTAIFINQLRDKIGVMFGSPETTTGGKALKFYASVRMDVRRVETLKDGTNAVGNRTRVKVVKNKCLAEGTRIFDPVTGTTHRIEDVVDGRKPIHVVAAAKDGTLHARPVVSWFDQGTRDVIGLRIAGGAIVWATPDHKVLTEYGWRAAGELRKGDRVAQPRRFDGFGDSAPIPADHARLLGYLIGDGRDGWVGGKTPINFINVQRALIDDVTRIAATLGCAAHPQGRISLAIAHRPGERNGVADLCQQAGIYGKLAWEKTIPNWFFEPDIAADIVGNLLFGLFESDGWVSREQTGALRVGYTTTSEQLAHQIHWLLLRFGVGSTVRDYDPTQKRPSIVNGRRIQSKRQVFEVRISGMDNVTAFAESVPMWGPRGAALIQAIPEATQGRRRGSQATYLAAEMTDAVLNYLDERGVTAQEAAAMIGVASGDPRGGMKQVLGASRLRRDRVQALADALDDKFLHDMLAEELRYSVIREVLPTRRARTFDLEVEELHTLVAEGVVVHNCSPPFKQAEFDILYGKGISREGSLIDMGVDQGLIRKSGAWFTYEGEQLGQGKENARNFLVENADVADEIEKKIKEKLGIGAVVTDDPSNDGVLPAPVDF
Kind of assay: Fluorescence Cell-Free Homogeneous Dose Retest to Identify Inhibitors of RecA-Intein Splicing Activity. [Related pubchem assays (depositor defined):AID2097, AID2223, AID489010, AID492950]. The format is functional.

Assay [3] concerns the target T3, Cytochrome P450 1A2 (Homo sapiens, UniProt P05177).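 Note: PubChem cytochrome P450 panel assay, CYP1A2 panel member.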
T3 sequence (P05177 whole entry): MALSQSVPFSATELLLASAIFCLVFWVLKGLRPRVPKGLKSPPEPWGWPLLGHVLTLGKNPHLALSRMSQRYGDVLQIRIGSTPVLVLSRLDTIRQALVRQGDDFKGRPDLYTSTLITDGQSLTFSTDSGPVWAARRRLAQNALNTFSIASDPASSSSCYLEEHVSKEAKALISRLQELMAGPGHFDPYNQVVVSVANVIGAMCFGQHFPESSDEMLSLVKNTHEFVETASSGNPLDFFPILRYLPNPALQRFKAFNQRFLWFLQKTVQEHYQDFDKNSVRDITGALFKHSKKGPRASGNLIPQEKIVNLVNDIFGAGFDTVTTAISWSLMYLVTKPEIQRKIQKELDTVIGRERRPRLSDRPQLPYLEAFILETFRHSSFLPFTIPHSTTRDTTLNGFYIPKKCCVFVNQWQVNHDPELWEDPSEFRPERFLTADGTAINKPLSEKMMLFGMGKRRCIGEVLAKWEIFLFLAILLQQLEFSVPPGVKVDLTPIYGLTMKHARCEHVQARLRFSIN

For assay [4], the target named is T4, Rac GTPase-activating protein 1 (Homo sapiens, UniProt Q9H0H5).
T4 sequence (Q9H0H5 whole entry): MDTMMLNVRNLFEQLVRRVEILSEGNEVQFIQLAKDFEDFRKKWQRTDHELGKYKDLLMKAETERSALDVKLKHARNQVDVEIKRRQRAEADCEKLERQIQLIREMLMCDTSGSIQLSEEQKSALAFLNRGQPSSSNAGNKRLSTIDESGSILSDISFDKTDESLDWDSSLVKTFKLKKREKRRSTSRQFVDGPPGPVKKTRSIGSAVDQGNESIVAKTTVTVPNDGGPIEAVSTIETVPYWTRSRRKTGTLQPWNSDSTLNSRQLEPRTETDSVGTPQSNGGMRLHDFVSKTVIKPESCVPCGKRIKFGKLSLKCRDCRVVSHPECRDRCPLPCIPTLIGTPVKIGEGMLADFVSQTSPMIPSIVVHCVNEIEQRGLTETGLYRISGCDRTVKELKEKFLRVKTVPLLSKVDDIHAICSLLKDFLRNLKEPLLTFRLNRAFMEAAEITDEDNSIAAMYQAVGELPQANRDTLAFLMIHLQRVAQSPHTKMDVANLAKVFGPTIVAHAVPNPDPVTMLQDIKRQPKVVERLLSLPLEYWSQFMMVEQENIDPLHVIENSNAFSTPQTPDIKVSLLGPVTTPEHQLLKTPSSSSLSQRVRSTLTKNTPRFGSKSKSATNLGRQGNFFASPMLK
Kind of assay: blockers of MgcRacGAP-driven Rac1 GTP hydrolysis – biochemical, ADP Hunter fluorescence, primary and confirmatory, confirmation (AID 624330). The format is functional.

Assay [5] has as its target Cytochrome P450 2C9 (Homo sapiens, UniProt P11712).
In assay [6] the target is Cytochrome P450 3A4 (Homo sapiens, UniProt P08684).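 Note: CYP3A4 tested as one member of a cytochrome P450 panel screen.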
In assay [7] the target is Cytochrome P450 2D6 (Homo sapiens, UniProt P10635).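 Note: CYP2D6 member of a cytochrome P450 panel assay.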
For assay [8], the target named is Cytochrome P450 2C19 (Homo sapiens, UniProt P33261). Kind of assay: Cytochrome panel assay with activity outcomes. Panel member name: p450-cyp2c19 Compounds with AC50 equal or less than 10 uM are considered active. In kind it is functional. The settings on record: read-out: AC50.
Assay [9] is described as follows: Luminescence Cell-Based Dose Retest to Confirm Inhibitors of Cancer Stem Cells. [Related pubchem assays (depositor defined):AID2717, AID2721]. In kind it is functional. The settings on record: Homo sapiens.

The values below come from ChEMBL document CHEMBL1201862, “PubChem BioAssay data set” (2004).

Where “and” joins values, the source holds several entries; their conditions need not be identical. Identical values can stand only once. Calls of active or inactive are those of the source. Bounds are passed on as bounds.

Chain of Cytochrome P450 3A4 (P08684 whole entry): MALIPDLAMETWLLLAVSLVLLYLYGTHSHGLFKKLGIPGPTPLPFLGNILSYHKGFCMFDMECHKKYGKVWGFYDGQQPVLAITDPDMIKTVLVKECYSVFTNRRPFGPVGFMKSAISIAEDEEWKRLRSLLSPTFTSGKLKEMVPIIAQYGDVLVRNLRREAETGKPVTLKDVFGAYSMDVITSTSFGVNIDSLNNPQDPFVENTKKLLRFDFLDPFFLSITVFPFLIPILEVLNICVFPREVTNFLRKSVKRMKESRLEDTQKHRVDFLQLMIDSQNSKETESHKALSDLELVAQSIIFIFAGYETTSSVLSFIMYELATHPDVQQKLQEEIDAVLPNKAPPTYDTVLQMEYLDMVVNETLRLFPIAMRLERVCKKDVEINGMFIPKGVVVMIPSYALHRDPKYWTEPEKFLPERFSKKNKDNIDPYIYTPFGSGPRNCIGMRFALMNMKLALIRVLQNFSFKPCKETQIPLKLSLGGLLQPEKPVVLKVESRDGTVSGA
Chain of Cytochrome P450 2C9 (P11712 whole entry): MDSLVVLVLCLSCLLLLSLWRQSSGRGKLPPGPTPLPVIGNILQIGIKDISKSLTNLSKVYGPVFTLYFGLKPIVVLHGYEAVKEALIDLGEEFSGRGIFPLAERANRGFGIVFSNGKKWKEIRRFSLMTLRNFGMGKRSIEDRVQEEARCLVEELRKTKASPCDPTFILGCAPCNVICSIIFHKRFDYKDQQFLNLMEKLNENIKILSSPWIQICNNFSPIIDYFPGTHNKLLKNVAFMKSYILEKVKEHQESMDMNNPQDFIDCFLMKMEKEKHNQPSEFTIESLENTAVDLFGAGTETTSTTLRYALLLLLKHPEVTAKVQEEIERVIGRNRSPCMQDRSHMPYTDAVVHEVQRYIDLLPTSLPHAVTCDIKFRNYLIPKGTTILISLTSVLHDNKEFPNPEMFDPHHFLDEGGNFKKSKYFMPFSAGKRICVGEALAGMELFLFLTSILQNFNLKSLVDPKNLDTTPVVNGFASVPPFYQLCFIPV
Chain of Cytochrome P450 2C19 (P33261 whole entry): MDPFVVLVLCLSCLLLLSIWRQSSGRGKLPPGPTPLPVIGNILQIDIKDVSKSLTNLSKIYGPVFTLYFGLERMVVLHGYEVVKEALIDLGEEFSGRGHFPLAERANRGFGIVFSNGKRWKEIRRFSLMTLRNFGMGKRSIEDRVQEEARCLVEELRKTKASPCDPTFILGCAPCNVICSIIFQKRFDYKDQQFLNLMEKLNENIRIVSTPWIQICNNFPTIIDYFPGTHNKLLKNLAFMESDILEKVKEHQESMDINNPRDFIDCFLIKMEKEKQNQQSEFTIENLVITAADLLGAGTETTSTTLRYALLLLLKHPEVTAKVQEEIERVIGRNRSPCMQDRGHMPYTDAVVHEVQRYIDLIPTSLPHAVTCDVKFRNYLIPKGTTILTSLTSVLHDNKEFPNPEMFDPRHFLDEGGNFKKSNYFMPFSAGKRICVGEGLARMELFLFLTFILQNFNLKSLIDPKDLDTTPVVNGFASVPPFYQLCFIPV
Chain of Cytochrome P450 2D6 (P10635 whole entry): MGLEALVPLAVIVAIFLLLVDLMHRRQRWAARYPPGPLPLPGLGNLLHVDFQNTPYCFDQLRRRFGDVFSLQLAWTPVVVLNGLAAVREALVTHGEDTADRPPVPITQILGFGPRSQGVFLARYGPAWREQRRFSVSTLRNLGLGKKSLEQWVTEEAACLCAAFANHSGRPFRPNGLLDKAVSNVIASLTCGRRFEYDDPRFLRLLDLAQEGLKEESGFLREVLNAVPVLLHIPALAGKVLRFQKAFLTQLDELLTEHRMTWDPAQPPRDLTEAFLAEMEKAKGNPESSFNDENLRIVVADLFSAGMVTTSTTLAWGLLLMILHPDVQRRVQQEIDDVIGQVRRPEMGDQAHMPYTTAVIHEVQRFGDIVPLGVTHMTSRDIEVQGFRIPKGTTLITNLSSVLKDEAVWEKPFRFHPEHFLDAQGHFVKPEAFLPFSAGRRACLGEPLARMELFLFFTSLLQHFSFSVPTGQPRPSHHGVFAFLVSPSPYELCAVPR

By AC50 is commonly meant the concentration at which the activity in the assay is half-maximal. As a reminder, the EC50 is the concentration giving half of the maximal effect. For `CC1=NN(Cc2ccccc2)C(=O)C1`, in [1], the AC50 is 5.61 µM (active). Besides, the EC50 in [2] was 1.88 µM (active).
As for `O=c1cc(-c2ccc(O)cc2)oc2c([C@H]3O[C@@H](CO)[C@@H](O)[C@@H](O)[C@@H]3O)c(O)cc(O)c12`, the AC50 in [3] was 20 µM (inconclusive).
As a reminder, the IC50 is the concentration at which inhibition is half-maximal. With `N#C/C(=C/c1ccc2c(c1)OCO2)C(=O)Nc1ccc(O)cc1`, in [4], the IC50 is 55.4 µM (active). For the same compound, the AC50 in assay [1] was 19 µM (active). Moreover, the EC50 in assay [2] was 3.64 µM (active).
On to `O=C(O)c1cccc(SSc2cccc(C(=O)O)c2)c1`, for which the AC50 in [5] was 2 µM (inconclusive); in [3], 5.01 µM (inconclusive).
With `CCNc1ncc2nc(-c3ccc(OC)cc3)c(=O)n(Cc3cccc(OC)c3)c2n1`, the AC50 is 15.8 µM (inconclusive) in assay [3] and 25.1 µM (inconclusive) in assay [6].
In the case of `COC(=O)[C@@]1(Cc2ccccc2)[C@H]2c3cc(C(=O)N(C)C)n(Cc4c(CO)ncc(C)c4O)c3C[C@H]2CN1C(=O)c1ccccc1`, the AC50 in assay [3] is 25.1 µM (inconclusive).
Still for that read-out and setting: then `Cc1cc(OCC(F)(F)C(F)(F)C(F)(F)C(F)(F)C(F)(F)C(F)F)nc(N)n1`, with 28.2 µM (inconclusive).
On to `CCc1n[nH]c2c1C(c1cccnc1)C(C#N)=C(N)O2` (configuration not stated), for which the AC50 in assay [1] is 24.4 µM (inconclusive). The EC50 in assay [2] is 11.5 µM (active).
With `COc1cc(NC(=O)c2cc(Cl)ccc2Cl)ccc1-c1cc2ccccc2oc1=O`, the AC50 was 25.1 µM (inconclusive) in assay [7], 12.6 µM (inconclusive) in [3] and 1 µM (inconclusive) in assay [6].
Regarding `N#Cc1cccc(NC(=O)N2CCCC3(CCN(C(=O)c4cnccn4)CC3)C2)c1`, the results for the AC50 in assay [3] and in assay [6] were 20 µM (inconclusive) and 15.8 µM (inconclusive), respectively.
In the case of `Cc1ccc(Nc2cc(C)nc3c(C)ccc([N+](=O)[O-])c23)cc1`, the AC50 in [1] is > 120 µM (inactive). In addition, in assay [2], the EC50 was 2.34 µM (active).
`CC(C)n1c(N2CCN(C(=O)Nc3ccccc3)CC2)nc2ccccc21`: the AC50 in assay [8] was 22.4 µM (inconclusive); in [3], 25.1 µM (inconclusive).
As for `CCCCCc1cc(=O)oc2c(C(CCN3CCCC(C)C3)c3ccc4c(c3)OCO4)c(OC)cc(OC)c12` (configuration not stated), the AC50 was 5.31 µM (active) in assay [1] and 6.14 µM (active) in assay [9]. Further, the EC50 in assay [2] was 11.6 µM (active).
For `CS(=O)(=O)c1ccc(C(=O)OCc2nnc(-c3ccc(Cl)cc3)o2)cc1[N+](=O)[O-]`, in [1], the AC50 is 2.2 µM (active). Moreover, the EC50 in assay [2] was 1.42 µM (active).
Regarding `CC(C)(C)c1ccc(NS(=O)(=O)c2ccc(N)cc2)cc1`, the AC50 was 3.16 µM (inconclusive) in assay [3] and 1 µM (inconclusive) in [6].
As for `O=C(CNC(=O)c1ccco1)OC(C(=O)c1ccccc1)c1ccccc1` (configuration not stated), the AC50 in assay [3] was 15.8 µM (inconclusive); in assay [6], 28.2 µM (inconclusive).
With `Cn1cccc1C(=O)N1CCC2(CC1)CCN(c1cccc(-c3ccccc3)c1)CC2`, the AC50 in assay [3] was 20 µM (inconclusive).
For `O=C(C1CCN(S(=O)(=O)c2cccc3nsnc23)CC1)N1CCn2c1nc1ccccc12`, the AC50 in assay [7] is 17.8 µM (inconclusive); in [5], 25.1 µM (inconclusive); in [3], 20 µM (inconclusive).
With `Cc1sc2nc(SCc3nc(-c4cccs4)no3)n(-c3ccccc3)c(=O)c2c1C`, the AC50 in [5] is 0.501 µM (inconclusive); in [3], 14.1 µM (inconclusive).
As to `CCC(=O)[C@@H](c1ccccc1)c1ccccn1`, the AC50 in assay [3] was 5.01 µM (inconclusive).
For `CCCc1n[nH]c2c1C(c1ccc(OC)c(Cn3nnc4ccccc43)c1)C(C#N)=C(N)O2` (configuration not stated), in assay [1], the AC50 is 19.7 µM (active). For the same compound, the 50% effective concentration (EC50) in [2] was 0.283 µM (active).
Consider `CCCCCCc1c(O)noc1C[C@H](N)C(=O)O`, for which the AC50 in assay [3] was 25.1 µM (inconclusive) and 31.6 µM (inconclusive).
With `Cc1cccc(CNc2ncncc2-c2ccc(C(=O)N(C)C)cc2)c1`, the AC50 in assay [8] was 31.6 µM (inconclusive); in assay [3] it was 15.8 µM (inconclusive).
For `CCCCCCN(CCCCCC)C(=O)Cc1c(-c2ccc(Cl)cc2)[nH]c2ccc(Cl)cc12` the same measures were 10 µM (inconclusive) and 31.6 µM (inconclusive).
In the case of `O=C(O)c1cc([N+](=O)[O-])ccc1NCCCc1ccccc1` [5-NITRO-2-PHENYLPROPYLAMINOBENZOIC ACID [NPPB]], in [3], the AC50 is 39.8 µM (inconclusive).
